Source: patent US5994361A, “Substituted purinyl derivatives with immunomodulating activity” (priority 1995, dated 1999)

Tests used:
[1] = tested on: B cell activity (LPS), spleen mononuclear leukocytes; test: Mitogenic proliferation on spleen cell suspension, B (LPS); format: cell-based, C57BL-6 mice; conditions: Mus musculus, Leukocyte, 72 h; at 10^-6 (M)
From the text: Mitogenic lectin (mitogen) is a protein which binds and cross-links specific cells surface carbohydrate determinants, and will polyclonally stimulate lymphoid cells. Lymphocyte activation by either antigens or mitogens results in intracellular changes and the subsequent development into a lymphoblast. Mitogenic stimulation of lymphocytes in vitro is believed to mimic the series of events which occur in vivo following their stimulation by specific antigens. PHA, ConA, and PWM, LPS mitogens can be used as a measurement of T cell and B cell activity, respectively.
Briefly, spleen mononuclear leukocytes from C57BL-6 mice were incubated in the presence or absence of mitogens with or without tested drugs. After 72 hours or 5 days, ^3 H thymidine incorporation was recorded as an indication of cell transformation and proliferation.
100 μl of a suspension of 2×10^6 cells/ml (2×10^5 cells/well) were incubated in presence of PHA or ConA or PWM or LPS at the following concentrations:
PHA=0.01% final concentration-0.001%
Cells were incubated in presence or absence of drugs for 72 hours. 0.5 or 1 μCi of tritiated thymidine (^3 H) was added per well the last 18 or 6 hours of incubation respectively. Cells were harvested and counted on a Beta counter.

[2] = Body weight, compound #1 with Cytoxan 20 mg/kg (Example 93); format: in vivo; conditions: compound #1 + CTX 20 mg/kg
Experimental: Combination of compound #1 (25 and 50 mg/kg i.p. daily) plus CTX (20 mg/kg i.v. single bolus) was evaluated against day 4 established DA-3 tumors.

[3] = tested on: DA-3 mammary carcinoma; test: Compound #1 with Cytoxan 28 mg/kg against DA-3 mammary carcinoma, tumor sizes (Example 94); format: in vivo, Balb/c mice; parameters: key: tumor volume = length × width²/2
Experimental: Parameters of effect were measured by inhibition of tumor outgrowth and growth rate [tumors measured along the longest axis (length) and the perpendicular shortest axis (width) and the tumor volumes (T.V.±S.E.) was calculated by the formula T.V.=length (cm)×(width cm)^2 /2.] assessment of body weight loss.
In another experiment, the CTX treatment was prolonged. Balb/c mice were injected s.c. with 5×10^5 DA-3 tumor cells at day 0. At day 4 when established tumors appeared, tumor-bearing animals were randomized (n=11/gr.) and injected with CTX (at 28 mg/kg) i.v. bolus injections at days 4, 11, and 18. […]

[4] = tested on: blood cells; test: Immunophenotyping on blood cells of compound #1 treated mice; format: in vivo, C57/BLJ6 mice; parameters: unit not given here; conditions: N = 10; for CD8+ CD45+ (mean): daily 4 days
Experimental: (§1) After in vivo drugs analysis, the drugs were evaluated on whole blood for drug stability and toxicity. Furthermore, in vivo/ex vivo analysis was performed on normal and cyclophosphamide immunosuppressed animals plus 5Fu-treated animals. Cell immunophenotyping was performed on mouse-treatedblood and spleen. The following cell surface antigens were analyzed:
(§2) CD3 (all T cells), CD4 (T helper/inducer, binds class II-restricted T cells), CD8a (cytotoxic T cells, CTL adhesion), CD11a (T, B, NK, some stem cells, CTL adhesion anti LFA-1α), MAC-1 (monocyte/macrophage), NK (natural killer cells), Ly5 (B cells), CD45 (all leukocytes, protein tyrosine phosphates), and TCR (T cell receptor).
(§3) C57/BLJ6 mice (6-8 weeks old) were injected daily for 4 consecutive days, sacrificed at day 5 and immunophenotyping was performed on blood and spleen cells.
(§4) The cells were washed twice in PBS, resuspended in 1 ml of RPMI 2% FBS, and incubated for 45 min. on ice with monoclonal antibody. The cells were washed once, fixed with 1% paraformaldehyde, then analyzed using XL Coulter® counter.

[5] = tested on: spleen cells; test: Immunophenotyping on spleen cells of compound #1 treated mice; format: in vivo, C57/BLJ6 mice; conditions: N = 10
Experimental: as §1, §2, §3, §4

[6] = tested on: blood cells; test: Immunophenotyping on blood cells, combination with cyclophosphamide; format: in vivo, C57/BLJ6 mice; conditions: N = 4
Experimental: as §1, §2, §3, §4

[7] = tested on: blood cells; test: Immunophenotyping on blood cells, combination with 5 Fluorouracil; format: in vivo, C57/BLJ6 mice; conditions: N = 4
Experimental: as §1, §2, §3, §4

[8] = tested on: spleen cells; test: Immunophenotyping on spleen cells, combination with 5 Fluorouracil; format: in vivo, C57/BLJ6 mice; conditions: N = 4
Experimental: as §1, §2, §3, §4

CN(C)c1ncnc2c1ncn2CCCCCOC(=O)N[C@H](CCCNC(=N)N)C(=O)O [Compound #1, N,N-Dimethylaminopurinyl Pentoxycarbonyl D-Arginine]
fold induction at 1 µM [1]: 2 | body weight loss [2]: No significant body weight loss | tumor size ([3]; BCH-1393 50 mg/kg + CTX 28 mg/kg, day 7): 6.5 | tumor size ([3]; BCH-1393 50 mg/kg + CTX 28 mg/kg, day 9): 12.6 | tumor size ([3]; BCH-1393 50 mg/kg + CTX 28 mg/kg, day 11): 20.2 | tumor size ([3]; BCH-1393 50 mg/kg + CTX 28 mg/kg, day 14): 9.5 | tumor size ([3]; BCH-1393 50 mg/kg + CTX 28 mg/kg, day 16): 41.7 | tumor size ([3]; BCH-1393 50 mg/kg + CTX 28 mg/kg, day 18): 44.9 | tumor size ([3]; BCH-1393 50 mg/kg + CTX 28 mg/kg, day 21): 63.4 | tumor size ([3]; BCH-1393 50 mg/kg + CTX 28 mg/kg, day 23): 69.6 | tumor size ([3]; BCH-1393 50 mg/kg + CTX 28 mg/kg, day 25): 95.4 | tumor size ([3]; BCH-1393 50 mg/kg + CTX 28 mg/kg, day 28): 104.2 | tumor size ([3]; BCH-1393 50 mg/kg + CTX 28 mg/kg, day 30): 115.8 | tumor size ([3]; BCH-1393 50 mg/kg Ip (Days 3-28) + CTX 28 mg/kg Iv (days 4, 11, 18), day 4): 3.6 | tumor size ([3]; single agent (CTX 28 mg/kg days 4, 11, 18, or BCH-1393 50 mg/kg days 3-28), day 4): 2.7 | tumor size ([3]; single agent (CTX 28 mg/kg or BCH-1393 50 mg/kg), day 7): 10.2 | tumor size ([3]; single agent (CTX 28 mg/kg or BCH-1393 50 mg/kg), day 9): 18.1 | tumor size ([3]; single agent (CTX 28 mg/kg or BCH-1393 50 mg/kg), day 11): 29.2 | tumor size ([3]; single agent (CTX 28 mg/kg or BCH-1393 50 mg/kg), day 14): 50.1 | tumor size ([3]; single agent (CTX 28 mg/kg or BCH-1393 50 mg/kg), day 16): 58.5 | tumor size ([3]; single agent (CTX 28 mg/kg or BCH-1393 50 mg/kg), day 18): 66.3 | tumor size ([3]; single agent (CTX 28 mg/kg or BCH-1393 50 mg/kg), day 21): 94.2 | tumor size ([3]; single agent (CTX 28 mg/kg or BCH-1393 50 mg/kg), day 23): 131.4 | tumor size ([3]; single agent (CTX 28 mg/kg or BCH-1393 50 mg/kg), day 25): 130.9 | tumor size ([3]; single agent (CTX 28 mg/kg or BCH-1393 50 mg/kg), day 28): 152.5 | tumor size ([3]; single agent (CTX 28 mg/kg or BCH-1393 50 mg/kg), day 30): 187.2 | CD11b+ (mean) ([4]; 25 mg/kg): 13.71 | NK+ CD3+ (mean) ([4]; 25 mg/kg): 5.84 | NK+ CD3- (mean) ([4]; 25 mg/kg): 5.90 | CD8+ CD45+ (mean) ([4]; 25 mg/kg): 10.11 | CD11b+ (mean) ([4]; 50 mg/kg): 9.68 | NK+ CD3+ (mean) ([4]; 50 mg/kg): 3.25 | NK+ CD3- (mean) ([4]; 50 mg/kg): 8.14 | CD8+ CD45+ (mean) ([4]; 50 mg/kg): 8.65 | Ly5 (mean) ([5]; 25 mg/kg): 54.08 | TCR+ (mean) ([5]; 25 mg/kg): 39.78 | Ly5 (mean) ([5]; 50 mg/kg): 50.35 | TCR+ (mean) ([5]; 50 mg/kg): 45.09 | CP8+ CD45+ (mean) ([6]; CY + cpd #1 25 mg/kg): 13.25 | CP8+ CD45+ (mean) ([6]; CY + cpd #1 50 mg/kg): 20.8 | CD8+ CD45+ (mean) ([7]; 5 FU + cpd #1 25 mg/kg): 10.11 | NK+ (mean) ([7]; 5 FU + cpd #1 25 mg/kg): 3.58 | CD8+ CD45+ (mean) ([7]; 5 FU + cpd #1 50 mg/kg): 8.65 | NK+ (mean) ([7]; 5 FU + cpd #1 50 mg/kg): 4.12 | CD4+ CD45- (mean) ([8]; 5 FU + cpd #1 25 mg/kg): 13.19 | NK+ (mean) ([8]; 5 FU + cpd #1 25 mg/kg): 3.32 | CD4+ CD45- (mean) ([8]; 5 FU + cpd #1 50 mg/kg): 12.06 | NK+ (mean) ([8]; 5 FU + cpd #1 50 mg/kg): 3.17
